Data on seven compounds can be found in ChEMBL document CHEMBL1921738, “A small molecule that preferentially binds the closed conformation of Hsp90” (Bioorg Med Chem Lett, 2011).

Data set [1] is described as follows: Binding affinity to Saccharomyces cerevisiae Hsc82 closed state by fluorescence polarization anisotropy method in presence of non-hydrolyzable ATP analog AMPPNP.
Data set [2] in a line: Binding affinity to Saccharomyces cerevisiae Hsc82 open apo state by fluorescence polarization anisotropy method.
The target in data set [3] is T1, Heat shock protein HSP 90-beta (Homo sapiens, UniProt P08238). Put plainly: Binding affinity to human Hsp90 closed state by fluorescence polarization anisotropy.
T1 sequence (P08238 whole entry): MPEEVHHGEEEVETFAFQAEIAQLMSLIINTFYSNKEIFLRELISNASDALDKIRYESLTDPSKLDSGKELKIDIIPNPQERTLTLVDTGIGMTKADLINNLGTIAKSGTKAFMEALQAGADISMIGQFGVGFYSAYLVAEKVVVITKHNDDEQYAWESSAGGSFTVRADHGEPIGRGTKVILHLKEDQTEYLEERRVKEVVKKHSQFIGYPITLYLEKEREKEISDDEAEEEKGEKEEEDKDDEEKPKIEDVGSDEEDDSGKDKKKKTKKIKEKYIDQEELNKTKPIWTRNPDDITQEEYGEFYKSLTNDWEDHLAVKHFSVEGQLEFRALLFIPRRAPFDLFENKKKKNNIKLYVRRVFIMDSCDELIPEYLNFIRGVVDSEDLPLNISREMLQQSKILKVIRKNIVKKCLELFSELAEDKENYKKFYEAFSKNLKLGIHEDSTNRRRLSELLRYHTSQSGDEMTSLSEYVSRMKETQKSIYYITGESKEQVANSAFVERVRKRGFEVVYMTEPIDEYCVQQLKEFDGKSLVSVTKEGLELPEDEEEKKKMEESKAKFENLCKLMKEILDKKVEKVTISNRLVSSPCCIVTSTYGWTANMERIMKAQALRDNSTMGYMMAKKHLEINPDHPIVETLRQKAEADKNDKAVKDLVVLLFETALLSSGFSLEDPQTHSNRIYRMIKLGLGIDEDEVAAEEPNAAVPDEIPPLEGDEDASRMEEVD
A further data set has as its system Jurkat. Put plainly: Cytotoxicity against human Jurkat T-lymphoblastoid leukemia cells after 24 to 48 hrs by MTS assay. It counts as cell-based.
The target in data set [4] is T1, Heat shock protein HSP 90-beta. Put plainly: Binding affinity to human Hsp90 open state by fluorescence polarization anisotropy.
Data set [5] shares this target. Put plainly: Binding affinity to Hsp90 after 1 hrs by Western blotting.

Calls of active or inactive are those of the source. The calls are words filed in the database; no cut-off is given here. Side chains are listed from the residue outwards. Peptide text beside a SMILES is read from it. * marks the point of attachment. Biotin = O=C1N[C@H]2[C@H](CS[C@H]2CCCCC(=O)*)N1; PEG4 = NCCOCCOCCOCCOCCC(=O)O

For `CC(C)C[C@@H]1NC(=O)[C@H](CCCCNC(=O)OCc2ccccc2)NC(=O)[C@H](CCCCNC(=O)c2ccc(C(=O)O)c(-c3c4ccc(=O)cc-4oc4cc(O)ccc34)c2)NC(=O)[C@@H](Cc2ccccc2)N(C)C(=O)[C@H](C(C)C)NC1=O`, the values for the Kd in data set [1] and in data set [2] were 120 µM and 180 µM, respectively.
Consider `CC(C)C[C@@H]1NC(=O)[C@H](Cc2ccccc2)NC(=O)[C@H](CC(C)C)NC(=O)[C@H](C(C)C)NC(=O)[C@H](CC(C)C)NC1=O` (cyclo(FLLVL)), for which the Kd in data set [3] is 100 µM.
In the data set on Jurkat, `CO[C@@H]1[C@@H](OC(N)=O)[C@@H](O)[C@H](Oc2ccc3c(O)c(NC(=O)c4ccc(O)c(CC=C(C)C)c4)c(=O)oc3c2C)OC1(C)C` [NOVOBIOCIN] registered an Activity of 700 µM.
As for `CC(C)C[C@@H]1NC(=O)[C@H](CCCCNC(=O)OCc2ccccc2)NC(=O)[C@H](Cc2ccccc2)NC(=O)[C@@H](Cc2ccccc2)N(C)C(=O)[C@H](C(C)C)NC1=O`, the outcome in data set [4] and in data set [3] was Active.
`CC(C)C[C@@H]1NC(=O)[C@H](Cc2ccccc2)NC(=O)[C@H](CC(C)C)NC(=O)[C@H](C(C)C)NC(=O)[C@H](CCCCNC(=O)CCOCCOCCOCCOCCNC(=O)CCCC[C@@H]2SC[C@@H]3NC(=O)N[C@@H]32)NC1=O` (cyclo(FLK([PEG4-Biotin])VL)) came in with a Kd in data set [5] of 20 µM.
As to `CC(C)C[C@@H]1NC(=O)[C@H](CCCCNC(=O)OCc2ccccc2)NC(=O)[C@H](Cc2ccccc2)NC(=O)[C@@H](Cc2ccccc2)N(C)C(=O)[C@H](CCCCNC(=O)c2ccc(C(=O)O)c(-c3c4ccc(=O)cc-4oc4cc(O)ccc34)c2)NC1=O`, the Kd in data set [1] came out at 27 µM; in data set [2], 57 µM.
Take `CC(C)[C@@H]1NC(=O)[C@H](CCCCNC(=O)c2ccc(C(=O)O)c(-c3c4ccc(=O)cc-4oc4cc(O)ccc34)c2)NC(=O)[C@H](CCCCNC(=O)OCc2ccccc2)NC(=O)[C@H](Cc2ccccc2)NC(=O)[C@@H](Cc2ccccc2)N(C)C1=O`: the Kd in data set [1] came out at 55 µM; in data set [2], 103 µM.
